{"source": "paper PMC11141866", "about": "“Pyrimidine depletion enhances targeted and immune therapy combinations in acute myeloid leukemia” (JCI Insight, 2024)", "key": {"THP-1 cells": {"system": "THP-1 cells", "test": "E. coli phagocytosis assay", "assay_type": "cell-based, human", "conditions": "THP-1 treated 6 days", "experimental": "The THP-1 AML cell line was treated for 6 days, then washed and cocultured with pHrodo Deep Red E. coli BioParticles (P35360, Invitrogen) per the manufacturer’s protocol. Ten-minute pretreatment with 10 μM of cytochalasin D (actin polymerization inhibitor) was used as a negative control for phagocytosis. After 90 minutes of incubation with E. coli, cells were washed and run on the Cytek Aurora spectral flow cytometer."}, "[1]": {"test": "HOSU-53 plasma exposure in MOLM-13 tumor-bearing mice", "assay_type": "in vivo, NCG mice", "conditions": "10 mpk PO, female mice, per mouse, 10 mg/kg"}, "[2]": {"system": "plasma dihydroorotate (DHO)", "test": "Single-dose PD: plasma DHO accumulation in mice", "assay_type": "in vivo, male C57BL/6 mice", "conditions": "HOSU-53 10 mpk PO, per mouse", "experimental": "In the i.v. cohort, serial blood samples were collected in tubes containing K2EDTA at 0.083, 0.25, 0.5, 1, 2, 6, 24, 48, and 72 hours postdose while in the oral gavage cohort, serial blood samples were collected at 0.25, 0.5, 1, 2, 4, 8, 24, 48, and 72 hours postdose. Blood samples were processed to plasma to analyze for HOSU-53 and L-dihydroorotic acid (DHO) concentrations using liquid chromatography-tandem mass spectrometry. page 6: Plasma samples were obtained following appropriate dosing administration and saved in the -80°C freezer till the time of analysis. Analyses by LC-MS/MS followed sample extraction by protein precipitation and separation by Ultra Performance Liquid Chromatography (UPLC, Waters Corporation, MA, USA) using a C18 column, 1.7um, 2.1x50mm, Mobile Phase A: 5:95:0.1 (v:v:v) Acetonitrile:Water:Formic Acid, Mobile Phase B: 50:50:0.1 (v:v:v) Methanol:Acetonitrile:Formic Acid. MS/MS analyses were performed on an API-6500 (Absciex MA, USA) in positive mode using an electrospray source at 550°C. The internal standard was d4-AEA monitored at 352.2 and 66.0 m/z transitions and the target analyte, HOSU-53, was monitored at 416.5 and 331.1 m/z transitions. The assay was qualified between 10-5,000 ng/ml HOSU53 to be within ±20% for QCs above the LLOQ in this range and ±25% at the LLOQ. DHO concentration quantification in mouse plasma samples. Plasma samples were obtained following appropriate dosing administration and saved in the -80°C freezer till the time of analysis. Analyses by LC-MS/MS followed sample extraction by protein precipitation and separation by Ultra Performance Liquid Chromatography (UPLC, Waters Corporation, MA, USA) using a Phenomenex Aqua C18 100x4.6mm, 3uM, […], Mobile Phase A: 100:0.1 (v:v) Water:Formic Acid, Mobile Phase B: 100:0.1 (v:v) Methanol:Formic Acid. MS/MS analyses were performed on an API-4000 (Absciex MA, USA) in negative mode using an electrospray source at 550°C. The internal standard was labeled 13C14_L-Dihydroorotic Acid monitored at 161.3 and 117.1 m/z transitions and the target analyte, L-Dihydroorotic Acid (DHO), was monitored at 157.0 and 70.0 m/z transitions. The assay was qualified between 10.0-30,000 ng/ml DHO to be within ±20% for QCs above the LLOQ in this range and ±25% at the LLOQ."}, "OCI-AML3": {"system": "OCI-AML3", "test": "MTS proliferation assay, OCI-AML3", "assay_type": "cell-based", "conditions": "Homo sapiens, OCI-AML-3; OCI-AML3, 96-hour treatment; read-out: IC50 (MTS proliferation)", "experimental": "(§1) A total of 10,000–20,000 cells from different AML lines or 50,000–75,000 cells of primary AML blasts were treated in a 96-well plate for 72 hours or 96 hours at 37°C, 5% CO2. CellTiter 96 Aqueous MTS reagent (Promega) was added to cells followed by a 3-hour incubation at 37°C, 5% CO2. The absorbance was measured at 490 nm using DTX 880 plate reader, and the IC50 was calculated using GraphPad Prism."}, "In vivo p.o. PK in dog": {"test": "In vivo p.o. PK in dog", "conditions": "po", "source_text": "(§2) Supplement jciinsight-9-173646-s083.xlsx, sheet \"Supplemental Table S.2.\" | column: HOSU-53"}, "Kasumi": {"system": "Kasumi", "test": "MTS proliferation assay, Kasumi", "assay_type": "cell-based", "conditions": "Homo sapiens; Kasumi, 96-hour treatment; read-out: IC50 (MTS proliferation)", "experimental": "as §1"}, "Dog DHODH": {"biological_target": "Dog DHODH (Canis lupus familiaris, UniProt A0A8I3MWX2)", "sequence (A0A8I3MWX2 1-406)": "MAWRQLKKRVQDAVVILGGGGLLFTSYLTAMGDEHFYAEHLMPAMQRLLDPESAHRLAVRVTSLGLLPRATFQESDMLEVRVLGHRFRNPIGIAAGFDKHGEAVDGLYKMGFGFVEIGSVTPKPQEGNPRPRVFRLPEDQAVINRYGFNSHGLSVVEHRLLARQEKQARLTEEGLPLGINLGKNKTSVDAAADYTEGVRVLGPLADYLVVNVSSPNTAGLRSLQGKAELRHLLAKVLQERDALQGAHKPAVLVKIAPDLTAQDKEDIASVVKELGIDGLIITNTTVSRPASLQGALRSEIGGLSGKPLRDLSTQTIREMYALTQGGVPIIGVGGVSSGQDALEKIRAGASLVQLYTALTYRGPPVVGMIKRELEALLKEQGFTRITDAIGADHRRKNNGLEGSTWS", "test": "Cell-free multi-species DHODH enzyme inhibition assay, dog", "assay_type": "biochemical", "conditions": "n=1"}, "Micronucleus Test": {"test": "Micronucleus Test", "conditions": "5 strain test with S9 activation (so in the source)", "source_text": "as §2"}, "[3]": {"test": "MOLM-13 CDX multiple ascending dose study", "assay_type": "in vivo", "conditions": "male, mouse, in vivo, po; daily p.o., MOLM-13 CDX NCG mice; read-out: maximum tolerated dose (MTD), daily dose", "source_text": "(§3) Male 8- to 12-week-old NCG mice (NOD-Prkdc^em26Cd52Il2rg^em26Cd22/NjuCrl, Charles River) were engrafted with 1 × 10^5 cells via tail vein i.v. injection. Four days after engraftment (day 1 of treatment), mice (n = 10/arm) were randomized to receive p.o. qd vehicle (40% HPβCD) or ascending doses of oral HOSU-53."}, "[4]": {"system": "MOLM-13 disseminated CDX AML model", "test": "MOLM-13 CDX multiple ascending dose study", "assay_type": "in vivo", "source_text": "as §3"}, "MOLM-13": {"system": "MOLM-13", "test": "MTS proliferation assay, MOLM-13", "assay_type": "cell-based", "conditions": "Homo sapiens; MOLM-13, 96-hour treatment; read-out: IC50 (MTS proliferation)", "experimental": "as §1"}, "CYP 2B6": {"biological_target": "CYP 2B6 (Homo sapiens, UniProt P20813)", "sequence (P20813 whole entry)": "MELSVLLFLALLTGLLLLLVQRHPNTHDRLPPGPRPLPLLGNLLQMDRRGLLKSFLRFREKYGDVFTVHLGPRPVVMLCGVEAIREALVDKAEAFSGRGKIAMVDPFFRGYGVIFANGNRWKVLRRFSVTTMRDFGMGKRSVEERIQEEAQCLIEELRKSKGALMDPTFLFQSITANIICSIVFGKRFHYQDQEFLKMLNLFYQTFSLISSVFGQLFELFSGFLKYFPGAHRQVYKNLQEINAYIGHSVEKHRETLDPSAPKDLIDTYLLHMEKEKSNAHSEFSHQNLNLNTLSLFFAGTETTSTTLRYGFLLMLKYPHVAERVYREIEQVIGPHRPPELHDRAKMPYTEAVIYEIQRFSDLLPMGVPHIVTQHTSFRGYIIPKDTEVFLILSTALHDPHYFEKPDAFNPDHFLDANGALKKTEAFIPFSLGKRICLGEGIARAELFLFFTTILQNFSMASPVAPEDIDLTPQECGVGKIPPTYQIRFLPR", "test": "CYP inhibition 2B6", "assay_type": "in vitro ADME", "source_text": "as §2"}}, "note": "pIC50: −log10 of the molar value. Values joined by “and” are separate entries in the source; they are usually repeats but may differ in a detail not shown here. Equal entries are not always repeated."}
{"smiles": "CCCCOc1cccc(-c2ccc(-c3cc(C(=O)O)c4cc(F)ccc4n3)cc2)c1", "note": "[HOSU-53]", "values": [{"measurement": "phagocytosis of E. coli", "setting": "THP-1 cells", "value": "enhanced ability to phagocytose E. coli"}, {"measurement": "HOSU-53 AUCall", "setting": "[1]; Day 1", "value": "2462.63 µM·h and 1961.3 µM·h"}, {"measurement": "HOSU-53 AUCall", "setting": "[1]; Day 14", "value": "3818.57 µM·h and 3432.74 µM·h"}, {"measurement": "DHO plasma concentration", "setting": "[2]; 0.5 h postdose", "value": 0.2422, "unit": "µM"}, {"measurement": "DHO plasma concentration", "setting": "[2]; 1 h postdose, 10 mg/kg", "value": "0.6072 µM and 0.4288 µM and 0.8412 µM"}, {"measurement": "DHO plasma concentration", "setting": "[2]; 2 h postdose, 10 mg/kg", "value": "2.068 µM and 1.512 µM and 1.613 µM"}, {"measurement": "DHO plasma concentration", "setting": "[2]; 4 h postdose, 10 mg/kg", "value": "2.783 µM and 2.701 µM and 3.7758 µM"}, {"measurement": "DHO plasma concentration", "setting": "[2]; 8 h postdose, 10 mg/kg", "value": "6.325 µM and 4.807 µM and 6.894 µM"}, {"measurement": "DHO plasma concentration", "setting": "[2]; 24 h postdose, 10 mg/kg", "value": "9.613 µM and 11.9535 µM and 9.74 µM"}, {"measurement": "DHO plasma concentration", "setting": "[2]; 48 h postdose, 10 mg/kg", "value": "4.364 µM and 4.453 µM and 2.467 µM"}, {"measurement": "DHO plasma concentration", "setting": "[2]; 72 h postdose, 10 mg/kg", "value": "1.189 µM and 0.9613 µM and 1.132 µM"}, {"measurement": "pIC50", "setting": "OCI-AML3", "value": 7.70}, {"measurement": "bioavailability", "setting": "In vivo p.o. PK in dog; read-out: in vivo p.o. bioavailability (F)", "value": 47, "unit": "%"}, {"measurement": "half-life", "setting": "In vivo p.o. PK in dog; read-out: in vivo p.o. t1/2 (converted)", "value": 8.4, "unit": "h"}, {"measurement": "pIC50", "setting": "Kasumi", "value": 7.35}, {"measurement": "pIC50", "setting": "Dog DHODH", "value": 8.90}, {"measurement": "Micronucleus Test", "setting": "Micronucleus Test", "value": "Negative"}, {"measurement": "MTD", "setting": "[3]", "value": "10 to 20", "unit": "mg/kg"}, {"measurement": "survival advantage vs vehicle", "setting": "[4]; 1 mg/kg daily p.o., P < 0.05", "value": "modest yet significant survival advantage"}, {"measurement": "tolerability", "setting": "[4]; 10 mg/kg daily p.o.", "value": "well tolerated"}, {"measurement": "tolerability", "setting": "[4]; 30 mg/kg daily p.o., after 13 days of treatment", "value": "dose-limiting weight loss"}, {"measurement": "tolerability", "setting": "[4]; 100 mg/kg daily p.o.", "value": "toxic"}, {"measurement": "Survival, day at event (per animal)", "setting": "[4]; 0.1 mpk qd p.o.", "value": "18 days and 17 days and 16 days"}, {"measurement": "Survival, day at event (per animal)", "setting": "[4]; 1 mpk qd p.o.", "value": "22 days and 25 days and 21 days and 23 days"}, {"measurement": "Survival, day at event (per animal)", "setting": "[4]; 10 mpk qd p.o.", "value": "63 days and 62 days and 48 days and 58 days and 61 days and 32 days and 57 days"}, {"measurement": "Survival, day at event (per animal)", "setting": "[4]; 30 mpk qdx13, holiday, 20 mpk qd start day 18, flag 0 = censored", "value": "63 days and 15 days and 65 days and 14 days and 71 days and 67 days and ≥ 74 days"}, {"measurement": "Survival, day at event (per animal)", "setting": "[4]; 100 mpk qdx6", "value": "10 days and 9 days"}, {"measurement": "pIC50", "setting": "MOLM-13", "value": 7.89}, {"measurement": "pIC50", "setting": "CYP 2B6", "value": 4.95}]}
